Data published in patent US20260285850A1, “SUBSTITUTED OXAZOLIDINONES AND IMIDAZOLINONES AS HERBICIDES” (FMC CORPORATION, priority 2023, published 2026).

Tests used:
Format in all cases: in vivo
[1] = test system: barnyardgrass (Echinochloa crus-galli); test: Test A postemergence application, visual injury rating 0-100
Outline: (§1)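 Plants were grown in a loam soil-sand blend and treated with test chemical in a non-phytotoxic solvent mixture containing surfactant, either sprayed on soil preemergence or applied postemergence to 2-10 cm plants. After 10 days in a greenhouse, injury was scored visually against untreated controls, 0 meaning no effect and 100 complete control.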

[2] = test system: ragweed (common ragweed, Ambrosia artemisiifolia); test: as above
Outline: as §1

corn (Zea mays) [3] = test: as above
Outline: as §1

[4] = test system: horseweed (Erigeron canadensis); test: as above
Outline: as §1

[5] = test system: oat, wild (wild oat, Avena fatua); test: as above
Outline: as §1

kochia (Bassia scoparia) [6] = test: as above
Outline: as §1

[7] = test system: ryegrass, Italian (italian ryegrass, Lolium multiflorum); test: as above
Outline: as §1

[8] = test system: palmer (palmer amaranth, palmer pigweed, Amaranthus palmeri); test: as above
Outline: as §1

[9] = test system: green foxtail (Setaria viridis); test: as above
Outline: as §1

[10] = test system: blackgrass (Alopecurus myosuroides); test: as above
Outline: as §1

[11] = test system: galium (catchweed bedstraw, Galium aparine); test: as above; settings: Postemergence, 16 g ai/ha, greenhouse 10 days; 0 no effect, 100 complete control
Outline: as §1

[12] = test system: wheat (Triticum aestivum); test: as above
Outline: as §1

soybean (Glycine max) [13] = test: as above
Outline: as §1

[14] = test system: barnyardgrass (Echinochloa crus-galli); test: Test A preemergence soil spray, visual injury rating 0-100; settings: 10 days
Outline: as §1

[15] = test system: ragweed (common ragweed, Ambrosia artemisiifolia); test: as above; settings: 10 days
Outline: as §1

corn (Zea mays) [16] = test: as above; settings: 10 days
Outline: as §1

[17] = test system: oat, wild (wild oat, Avena fatua); test: as above; settings: 10 days
Outline: as §1

kochia (Bassia scoparia) [18] = test: as above; settings: 10 days
Outline: as §1

[19] = test system: ryegrass, Italian (italian ryegrass, Lolium multiflorum); test: as above; settings: 10 days
Outline: as §1

[20] = test system: palmer (palmer amaranth, palmer pigweed, Amaranthus palmeri); test: as above; settings: 10 days
Outline: as §1

[21] = test system: green foxtail (Setaria viridis); test: as above; settings: 10 days
Outline: as §1

[22] = test system: blackgrass (Alopecurus myosuroides); test: as above; settings: 10 days
Outline: as §1

[23] = test system: wheat (Triticum aestivum); test: as above; settings: 10 days
Outline: as §1

soybean (Glycine max) [24] = test: as above; settings: 10 days
Outline: as §1

rice (Oryza sativa) = test: Test B flooded paddy test, visual plant response rating 0-100; settings: 250 g ai/ha, Flood, applied to paddy water, evaluated after 13 days
Outline: (§2)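 Compounds applied to standing paddy water (3 cm above soil, maintained for the test duration) on 2-leaf-stage plants; visual rating vs controls at 13 days, greenhouse.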

[25] = test system: sedge, umbrella (small-flower umbrella sedge, Cyperus difformis); test: as above; settings: 250 g ai/ha, Flood, applied to paddy water, evaluated after 13 days
Outline: as §2

[26] = test system: ducksalad (Heteranthera limosa); test: as above; settings: 250 g ai/ha, Flood, applied to paddy water, evaluated after 13 days
Outline: as §2

[27] = test system: barnyardgrass (Echinochloa crusgalli); test: as above; settings: 250 g ai/ha, Flood, applied to paddy water, evaluated after 13 days
Outline: as §2

[28] = 62 g ai/ha, postemergence, 10 days, 0 = no effect, 100 = complete control
[29] = Postemergence, 16 g ai/ha, greenhouse 10 days, 0 no effect, 100 complete control
[30] = 62 g ai/ha, 0 = no effect, 100 = complete control

## CC1(C(=O)NC2CC=C(C(=O)OCC(F)F)C2)CN(c2cc(F)cc(F)c2)C(=O)O1 (stereo not drawn) [Compound 151]
[1]; [28]
  Barnyardgrass plant response rating (0-100): 20
[1]; [29]
  Barnyardgrass plant response rating (0 to 100 scale): 0
[2]; [28]
  Ragweed plant response rating (0-100): 0
[2]; [29]
  Ragweed plant response rating (0 to 100 scale): 0
Corn (Zea mays) [3]; [28]
  Corn plant response rating (0-100): 0
Corn (Zea mays) [3]; [29]
  Corn plant response rating (0 to 100 scale): 0
[4]; [28]
  Horseweed plant response rating (0-100): 0
[4]; [29]
  Horseweed plant response rating (0 to 100 scale): 0
[5]; [28]
  Oat, Wild plant response rating (0-100): 0
[5]; [29]
  Oat, Wild plant response rating (0 to 100 scale): 0
Kochia (Bassia scoparia) [6]; [28]
  Kochia plant response rating (0-100): 0
Kochia (Bassia scoparia) [6]; [29]
  Kochia plant response rating (0 to 100 scale): 0
[7]; [28]
  Ryegrass, Italian plant response rating (0-100): 0
[7]; [29]
  Ryegrass, Italian plant response rating (0 to 100 scale): 0
[8]; [28]
  Pigweed, Palmer plant response rating (0-100): 0
[8]; [29]
  Pigweed, Palmer plant response rating (0 to 100 scale): 0
[9]; [28]
  Foxtail, Green plant response rating (0-100): 0
[9]; [29]
  Foxtail, Green plant response rating (0 to 100 scale): 0
[10]; [28]
  Blackgrass plant response rating (0-100): 0
[10]; [29]
  Blackgrass plant response rating (0 to 100 scale): 0
[11]
  Galium plant response rating (0 to 100 scale): 0
[12]; [28]
  Wheat plant response rating (0-100): 0
[12]; [29]
  Wheat plant response rating (0 to 100 scale): 0
Soybean (Glycine max) [13]; [28]
  Soybean plant response rating (0-100): 0
Soybean (Glycine max) [13]; [29]
  Soybean plant response rating (0 to 100 scale): 0
[14]; 16 g ai/ha, 0 to 100 scale
  Barnyardgrass plant response rating: 0
[14]; [30]
  Barnyardgrass plant response rating (0-100): 0
[15]; 16 g ai/ha, 0 to 100 scale
  Ragweed plant response rating: 0
[15]; [30]
  Ragweed plant response rating (0-100): 0
Corn (Zea mays) [16]; 16 g ai/ha, 0 to 100 scale
  Corn plant response rating: 0
Corn (Zea mays) [16]; [30]
  Corn plant response rating (0-100): 0
[17]; 16 g ai/ha, 0 to 100 scale
  Oat, Wild plant response rating: 0
[17]; [30]
  Oat, Wild plant response rating (0-100): 0
Kochia (Bassia scoparia) [18]; 16 g ai/ha, 0 to 100 scale
  Kochia plant response rating: 0
Kochia (Bassia scoparia) [18]; [30]
  Kochia plant response rating (0-100): 0
[19]; 16 g ai/ha, 0 to 100 scale
  Ryegrass, Italian plant response rating: 0
[19]; [30]
  Ryegrass, Italian plant response rating (0-100): 0
[20]; 16 g ai/ha, 0 to 100 scale
  Pigweed, Palmer plant response rating: 0
[20]; [30]
  Pigweed, Palmer plant response rating (0-100): 0
[21]; 16 g ai/ha, 0 to 100 scale
  Foxtail, Green plant response rating: 0
[21]; [30]
  Foxtail, Green plant response rating (0-100): 0
[22]; 16 g ai/ha, 0 to 100 scale
  Blackgrass plant response rating: 0
[22]; [30]
  Blackgrass plant response rating (0-100): 0
[23]; 16 g ai/ha, 0 to 100 scale
  Wheat plant response rating: 0
[23]; [30]
  Wheat plant response rating (0-100): 0
Soybean (Glycine max) [24]; 16 g ai/ha, 0 to 100 scale
  Soybean plant response rating: 0
Soybean (Glycine max) [24]; [30]
  Soybean plant response rating (0-100): 0
Rice (Oryza sativa)
  Plant response rating, Rice (0 to 100 scale, 0 is no effect and 100 is complete control): 0
[25]
  Plant response rating, Sedge, Umbrella (0 to 100 scale, 0 is no effect and 100 is complete control): 0
[26]
  Plant response rating, Ducksalad (0 to 100 scale, 0 is no effect and 100 is complete control): 0
[27]
  Plant response rating, Barnyardgrass (0 to 100 scale, 0 is no effect and 100 is complete control): 0
